Data: patent US10085953B2, “Skin cancer treatment” (Avexxin AS, priority 2014, dated 2018)
Entries after “also recorded” stand apart in the source; their conditions may differ.

Test system: EGF-induced AA release in HaCaT keratinocytes
Test: [3H]-Arachidonic acid release assay in EGF-stimulated HaCaT keratinocytes
Assay type: cell-based, human
Details: EGF 100 ng/ml 1 h, dose-dependent, FIG. 2
Description: The spontaneously immortalized skin keratinocyte cell line HaCaT (kindly provided by Prof. N. Fusenig, Heidelberg, Deutsches Krebsforschungszentrum, Germany) was cultured in DMEM supplemented with 10% (v/v) FBS, 0.3 mg/ml glutamine, and 0.1 mg/ml gentamicin at 37° C. with 5% CO2 in a humidified atmosphere. For release assays, flow cytometry cell cycle analysis and in vitro cPLA2α activity assay, cells were grown in 48 well trays or in 6 well trays, respectively. Cells were cultivated until 2 days post-confluency; serum starved in DMEM/0.5% FBS overnight and processed at day 3 post-confluence to ensure differentiation. Experiments were performed in DMEM/0.5% FBS. Untreated cells without inducing agents were included for unstimulated control. […] Cells were lysed and 200 μg of total protein was analyzed for cPLA2α activity as described. […] Following washing three times with Tris-buffered saline containing […], immunoreactive proteins were detected by horseradish peroxidase-conjugated secondary antibody (1 hour at room temperature) and SuperSignal® West Femto Maximum Sensivity substrate. Blots were analyzed by the BioRad Image Lab software, and target protein band intensities were normalized to α-tubulin. […] After labelling, the cells were washed twice with phosphate-buffered saline (PBS) containing fatty acid free BSA (2 mg/ml) (fBSA) in order to remove unincorporated radioactivity. […]

With CC/C=C\C/C=C\C/C=C\C/C=C\C/C=C\CCSCC(=O)C(F)(F)F [AVX002] the “effect on EGF-induced AA-release” value was “completely abrogated; also recorded: reduced AA-release to below basal release in a dose-dependent manner”.
